From paper PMC6270160, “Bioactive Phenylpropanoid Glycosides from Tabebuia avellanedae” (Molecules, 2013)

Legend:
[1] = DPPH free radical scavenging (antioxidant) assay; conditions: DPPH in MeOH, 30 min at room temperature in the dark, absorbance at 517 nm, triplicate; read-out: IC50 ± SD, scavenging activity on DPPH free radicals
Experimental: Test samples (100 µL) at different concentrations in MeOH and DPPH (200 µL, […]) in MeOH were added to 96-well microtiter plates. The plate was shaken for 1 min by a plate shaker, and incubated for 30 min at room temperature in the dark. After incubation, the absorbance was recorded at 517 nm. The tested samples at different concentrations without DPPH solution were used as blank control to eliminate the influence of the sample color. Ascorbic acid was used as positive control, and DPPH solution in MeOH served as a negative control. All tests were independently performed in triplicate. DPPH radical scavenging activity (%) = [1 − (AbsS − AbsB)/AbsC] × 100%.

cytochrome CYP3A4 enzyme = target: T1, cytochrome CYP3A4 enzyme (Homo sapiens, UniProt P08684); experiment: Inhibitory activity on cytochrome CYP3A4 enzyme (Vivid substrate, P450 BACULOSOMES, fluorescence); format: in vitro ADME; conditions: 20 min pre-incubation, 30 min reaction, fluorescence at 460 nm; read-out: IC50 ± SD, inhibitory activity on CYP3A4 enzyme
T1 construct: purchased
T1 sequence (P08684 whole entry): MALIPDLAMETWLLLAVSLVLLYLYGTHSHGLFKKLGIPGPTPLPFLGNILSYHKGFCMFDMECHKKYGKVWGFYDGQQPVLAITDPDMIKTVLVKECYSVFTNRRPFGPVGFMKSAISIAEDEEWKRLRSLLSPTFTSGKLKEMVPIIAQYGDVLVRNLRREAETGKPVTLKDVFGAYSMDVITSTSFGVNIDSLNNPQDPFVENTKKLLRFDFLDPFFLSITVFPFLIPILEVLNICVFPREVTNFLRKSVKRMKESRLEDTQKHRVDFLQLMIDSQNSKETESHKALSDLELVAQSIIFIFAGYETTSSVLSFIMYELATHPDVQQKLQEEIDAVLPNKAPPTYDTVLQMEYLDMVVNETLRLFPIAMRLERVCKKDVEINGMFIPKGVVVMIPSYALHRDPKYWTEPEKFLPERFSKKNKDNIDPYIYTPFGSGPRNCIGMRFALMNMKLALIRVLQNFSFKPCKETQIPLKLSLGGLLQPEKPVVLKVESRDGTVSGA
Experimental: Measurement of inhibitory activity on cytochrome CYP3A4 enzyme vivid substrate and fluorescent standards were reconstituted and a standard curve was prepared. 40 µL of test samples at different concentrations diluted in 1% DMSO, positive inhibition control and solvent were added to each 96-well plate, then was added 50 µL of Master pre-mix consisting of P450 BACULOSOMES in vivid CYP 450, Reaction Buffer and Regeneration System (consisting of glucose-6-phosphate and glucose-6-phosphate dehydrogenase), and the plate was mixed and incubated for 20 min to allow samples to interact with the CYP3A4 enzyme. The reaction was started by addition of 10 µL reaction starting liquid including vivid substrate, NADP and Reaction Buffer mixture, and the fluorescence was recorded using a LAS-3000 luminescent image analyzer at a wavelength of 460 nm after 30 min duration of reaction. The inhibition rate was calculated using the equation: % inhibition = [1 − relative fluorescence units (rfu) in the presence of the test sample or positive inhibition control/rfu in the absence of the test compound or positive inhibition control] × 100.

IC50 [1] [µM] | IC50 (cytochrome CYP3A4 enzyme) [µM] | SMILES
3.08 ± 0.06 | – | O=C1O[C@H]([C@@H](O)CO)C(O)=C1O [Ascorbic acid, reference compound]
0.24 ± 0.01 | 15.1 ± 2.43 | CC1OC(OC2C(O)C(CO)OC(OCCc3ccc(O)c(O)c3)C2O)C(O)C(O)C1OC(=O)C=Cc1ccc(O)c(O)c1 [Compound 6, 1′-O-β-(3,4-dihydroxyphenyl)-ethyl-[4′′-O-caffeoyl-(α-L-fucopyranosyl)]-(l-3′)-D-galactopyranoside]
0.66 ± 0.04 | 37.7 ± 2.11 | CC1OC(OC2C(O)C(OCCc3ccc(O)c(O)c3)OC(CO)C2OC(=O)C=Cc2ccc(O)c(O)c2)C(O)C(O)C1O (stereo not shown) [Compound 3]
1 ± 0.02 | 43.3 ± 1.79 | CC1OC(OC2C(O)C(OCCc3ccc(O)c(O)c3)OC(CO)C2OC(=O)C=Cc2ccc(O)c(O)c2)C(O)C(O)C1O [Compound 2, 1′-O-β-(3,4-dihydroxyphenyl)-ethyl-4′-O-caffeoyl-α-L-fucopyranosyl-(l-3′)-D-glucopyranoside]
1.15 ± 0.04 | 91.7 ± 5.44 | CC1OC(OC2C(O)C(COC(=O)C=Cc3ccc(O)c(O)c3)OC(OCCc3ccc(O)c(O)c3)C2O)C(O)C(O)C1O (stereo not shown) [Compound 4]
0.12 ± 0.03 | 22.5 ± 1.65 | C[C@@H]1O[C@@H](O[C@H]2[C@@H](O)[C@@H](CO)O[C@@H](OCCc3ccc(O)c(O)c3)[C@@H]2O)[C@H](O)[C@H](O)[C@H]1OC(=O)/C=C/c1ccc(O)c(O)c1 [Compound 5, 1'-O-β-(3,4-dihydroxyphenyl)-ethyl-[4′′-O-caffeoyl-(α-L-rhamnopyranosyl)]-(l-3′)-D-galactopyranoside]
2.33 ± 0.06 | 46.3 ± 1.53 | CC1OC(OC2C(O)C(OCCc3ccc(O)c(O)c3)OC(CO)C2OC(=O)C=Cc2ccc(O)c(O)c2)C(O)C(O)C1O (stereo not shown) [Compound 1]
